Where a SMILES comes first, the peptide text is derived from it. The star is where a group is joined. Bz = O=C(c1ccccc1)*
Legend:
[1] = system: cultured rat pituitary cells; experiment: Secretion of ACTH and β-endorphin by cultured rat pituitary cells; assay type: cell-based; conditions: general procedure set forth in Example III; in vitro or in vivo not specified
Description: The synthetic and the natural CRF were examined for their effects on the secretion of ACTH and β-endorphin in vitro and the synthetic CRF was also examined in vivo. The high potency of synthetic and natural CRF to stimulate the secretion of ACTH and β-endorphin by cultured rat pituitary cells was measured. […] The secretory response to maximal (>5 nM) concentrations of CRF is at a plateau level. In vivo doses from 30 ng to 3 μg/Kg of body weight rapidly elevated ACTH and β-endorphin-like (β-END-LI) secretions 5-20 fold.

[2] = Blood pressure in rats (mean carotid blood pressure, urethane-anesthetized rat); assay type: in vivo; conditions: general procedure set forth in Example III
Description: Plasma levels of ACTH and β-END-LI are elevated for at least 5-20 minutes following the intravenous administration of CRF to nembutal-anesthesized male rats and to quiescent male or female rats with indwelling intravenous cannulae. […] Mean cartoid blood pressure in a urethane-anesthesized rat fell from 87 to 72±2 mm Hg and remained at that level for 30 minutes following an injection equal to 3 μg CRF/Kg body weight; the subsequent administration of an injection equal to 30 μg CRF/Kg body weight lowered mean blood pressure to 42±3 mm Hg for more than 2 hours.

Structure (SMILES)	Stimulation of secretion of ACTH and β-END-LI (in words) [1]	Lowering of blood pressure (in words) [2]
CC[C@H](C)[C@H](NC(=O)[C@H](CC(=O)O)NC(=O)[C@H](CC(C)C)NC(=O)[C@H](CC(C)C)NC(=O)[C@H](CCCCN)NC(=O)[C@H](CCCNC(=N)N)NC(=O)[C@H](CC(N)=O)NC(=O)[C@H](CO)NC(=O)[C@H](Cc1c[nH]cn1)NC(=O)[C@H](C)NC(=O)[C@H](CCC(N)=O)NC(=O)[C@H](CCC(N)=O)NC(=O)[C@H](C)NC(=O)[C@H](CC(C)C)NC(=O)[C@H](CCC(N)=O)NC(=O)[C@H](CC(=O)O)NC(=O)[C@H](C)NC(=O)[C@H](CCCCN)NC(=O)[C@@H](NC(=O)[C@H](CCSC)NC(=O)[C@H](CCC(=O)O)NC(=O)[C@H](CC(C)C)NC(=O)[C@@H](NC(=O)[C@H](CCC(=O)O)NC(=O)[C@H](CCCNC(=N)N)NC(=O)[C@H](CC(C)C)NC(=O)[C@H](CC(C)C)NC(=O)[C@H](Cc1c[nH]cn1)NC(=O)[C@H](Cc1ccccc1)NC(=O)[C@@H](NC(=O)[C@H](CC(C)C)NC(=O)[C@H](CC(=O)O)NC(=O)[C@H](CC(C)C)NC(=O)[C@H](CO)NC(=O)[C@@H](NC(=O)[C@@H]1CCCN1C(=O)[C@@H]1CCCN1C(=O)[C@H](CCC(=O)O)NC(=O)[C@H](CCC(N)=O)NC(=O)[C@H](C)NC(C)=O)[C@@H](C)CC)[C@@H](C)O)C(C)C)[C@@H](C)O)C(=O)N[C@@H](C)C(N)=O [[Acetyl-Ala^1]-CRF]	stimulates the secretion of ACTH and β-END-LI	very significant lowering of blood pressure
CC[C@H](C)[C@H](NC(=O)[C@H](CC(=O)O)NC(=O)[C@H](CC(C)C)NC(=O)[C@H](CC(C)C)NC(=O)[C@H](CCCCN)NC(=O)[C@H](CCCNC(=N)N)NC(=O)[C@H](CC(N)=O)NC(=O)[C@H](CO)NC(=O)[C@H](Cc1c[nH]cn1)NC(=O)[C@H](C)NC(=O)[C@H](CCC(N)=O)NC(=O)[C@H](CCC(N)=O)NC(=O)[C@H](C)NC(=O)[C@H](CC(C)C)NC(=O)[C@H](CCC(N)=O)NC(=O)[C@H](CC(=O)O)NC(=O)[C@H](C)NC(=O)[C@H](CCCCN)NC(=O)[C@@H](NC(=O)[C@H](CCSC)NC(=O)[C@H](CCC(=O)O)NC(=O)[C@H](CC(C)C)NC(=O)[C@@H](NC(=O)[C@H](CCC(=O)O)NC(=O)[C@H](CCCNC(=N)N)NC(=O)[C@H](CC(C)C)NC(=O)[C@H](CC(C)C)NC(=O)[C@H](Cc1c[nH]cn1)NC(=O)[C@H](Cc1ccccc1)NC(=O)[C@@H](NC(=O)[C@H](CC(C)C)NC(=O)[C@H](CC(=O)O)NC(=O)[C@H](CC(C)C)NC(=O)[C@H](CO)NC(=O)[C@@H](NC(=O)[C@@H]1CCCN1C(=O)[C@@H]1CCCN1C(C)=O)[C@@H](C)CC)[C@@H](C)O)C(C)C)[C@@H](C)O)C(=O)N[C@@H](C)C(N)=O [[Acetyl-Pro^4]-CRF]	stimulates the secretion of ACTH and β-END-LI	very significant lowering of blood pressure to a greater extent than CRF
CC[C@H](C)[C@H](NC(=O)[C@H](CCC(=O)O)NC(=O)[C@@H](NC(=O)[C@H](CCSC)NC(=O)[C@H](CCCCN)NC(=O)[C@H](CCCNC(=N)N)NC(=O)[C@H](CC(C)C)NC(=O)[C@H](CC(C)C)NC(=O)[C@H](CCC(=O)O)NC(=O)[C@H](CC(C)C)NC(=O)[C@H](CO)NC(=O)[C@H](CC(C)C)NC(=O)[C@H](CC(=O)O)NC(=O)[C@@H](NC(=O)[C@H](CO)NC(=O)[C@@H](NC(=O)[C@@H]1CCCN1C(=O)[C@@H]1CCCN1C(=O)CNC(=O)[C@@H]1CCC(=O)N1)[C@@H](C)CC)[C@@H](C)CC)[C@@H](C)CC)C(=O)N[C@@H](CCC(=O)O)C(=O)N[C@@H](CCCCN)C(=O)N[C@@H](CCC(N)=O)C(=O)N[C@@H](CCC(=O)O)C(=O)N[C@@H](CCCCN)C(=O)N[C@@H](CCC(=O)O)C(=O)N[C@@H](CCCCN)C(=O)N[C@@H](CCC(N)=O)C(=O)N[C@@H](CCC(N)=O)C(=O)N[C@@H](C)C(=O)N[C@@H](C)C(=O)N[C@@H](CC(N)=O)C(=O)N[C@@H](CC(N)=O)C(=O)N[C@@H](CCCNC(=N)N)C(=O)N[C@@H](CC(C)C)C(=O)N[C@@H](CC(C)C)C(=O)N[C@@H](CC(C)C)C(=O)N[C@@H](CC(=O)O)C(=O)N[C@@H](C)C(=O)N[C@@H](C)C(N)=O [[Ala^39, Ala^40]-sauvagine]	stimulates the secretion of ACTH and β-END-LI	very significant lowering of blood pressure
CC[C@H](C)[C@H](NC(=O)[C@H](CC(=O)O)NC(=O)[C@H](CC(C)C)NC(=O)[C@H](CC(C)C)NC(=O)[C@H](CCCCN)NC(=O)[C@H](CCCNC(=N)N)NC(=O)[C@H](CC(N)=O)NC(=O)[C@H](CO)NC(=O)[C@H](Cc1c[nH]cn1)NC(=O)[C@H](C)NC(=O)[C@H](CCC(N)=O)NC(=O)[C@H](CCC(N)=O)NC(=O)[C@H](C)NC(=O)[C@H](CC(C)C)NC(=O)[C@H](CCC(N)=O)NC(=O)[C@H](CC(=O)O)NC(=O)[C@H](C)NC(=O)[C@H](CCCCN)NC(=O)[C@@H](NC(=O)[C@H](CCSC)NC(=O)[C@H](CCC(=O)O)NC(=O)[C@H](CC(C)C)NC(=O)[C@@H](NC(=O)[C@H](CCC(=O)O)NC(=O)[C@H](CCCNC(=N)N)NC(=O)[C@H](CC(C)C)NC(=O)[C@H](CC(C)C)NC(=O)[C@H](Cc1c[nH]cn1)NC(=O)[C@H](CC(C)C)NC(=O)[C@@H](NC(=O)[C@H](CC(C)C)NC(=O)[C@H](CC(=O)O)NC(=O)[C@H](CC(C)C)NC(=O)[C@H](CO)NC(=O)[C@@H](NC(=O)[C@@H]1CCCN1C(=O)[C@@H]1CCCN1C(=O)[C@H](CCC(=O)O)NC(=O)[C@H](C)NC(=O)c1ccccc1)[C@@H](C)CC)[C@@H](C)O)C(C)C)[C@@H](C)O)C(=O)N[C@@H](C)C(N)=O [[Benzoyl-Ala^1, des Gln^2, Leu^12]-CRF] (Bz-AEPPISLDLTLHLLREVLEMTKADQLAQQAHSNRKLLDIA-NH2)	stimulates the secretion of ACTH and β-END-LI	very significant lowering of blood pressure
CC[C@H](C)[C@H](NC(=O)[C@@H](NC(=O)[C@H](CC(=O)O)NC(=O)[C@H](CC(C)C)NC(=O)[C@H](CC(C)C)NC(=O)[C@H](CC(C)C)NC(=O)[C@H](CCCNC(=N)N)NC(=O)[C@H](CC(N)=O)NC(=O)[C@H](CC(N)=O)NC(=O)[C@H](C)NC(=O)[C@H](C)NC(=O)[C@H](CCC(N)=O)NC(=O)[C@H](CCC(N)=O)NC(=O)[C@H](CCCCN)NC(=O)CNC(=O)[C@H](CCCCN)NC(=O)[C@H](CCC(=O)O)NC(=O)[C@H](CCC(N)=O)NC(=O)[C@H](CCCCN)NC(=O)[C@H](CCC(=O)O)NC(=O)[C@@H](NC(=O)[C@H](CCC(=O)O)NC(=O)[C@@H](NC(=O)[C@H](CCSC)NC(=O)[C@H](CCCCN)NC(=O)[C@H](CCCNC(=N)N)NC(=O)[C@H](CC(C)C)NC(=O)[C@H](CC(C)C)NC(=O)[C@H](CCC(=O)O)NC(=O)[C@H](CC(C)C)NC(=O)[C@H](CO)NC(=O)[C@H](CC(C)C)NC(=O)[C@H](CC(=O)O)NC(=O)[C@@H](NC(=O)[C@H](CO)NC(=O)[C@@H](NC(=O)[C@@H]1CCCN1C(=O)[C@@H]1CCCN1C(=O)CNC(=O)[C@@H]1CCC(=O)N1)[C@@H](C)CC)[C@@H](C)CC)[C@@H](C)CC)[C@@H](C)CC)[C@@H](C)O)C(N)=O [[Gly^26]-sauvagine]	stimulates the secretion of ACTH and β-END-LI	very significant lowering of blood pressure
CC[C@H](C)[C@H](NC(=O)[C@H](CC(=O)O)NC(=O)[C@H](CC(C)C)NC(=O)[C@H](CC(C)C)NC(=O)[C@H](CCCCN)NC(=O)[C@H](CCCNC(=N)N)NC(=O)[C@H](CC(N)=O)NC(=O)[C@H](CO)NC(=O)[C@H](Cc1c[nH]cn1)NC(=O)[C@H](C)NC(=O)[C@H](CCC(N)=O)NC(=O)[C@H](CCC(N)=O)NC(=O)[C@H](C)NC(=O)[C@H](CC(C)C)NC(=O)[C@H](CCC(N)=O)NC(=O)[C@H](CC(=O)O)NC(=O)[C@H](C)NC(=O)[C@H](CCCCN)NC(=O)[C@@H](NC(=O)[C@H](CCSC)NC(=O)[C@H](CCC(=O)O)NC(=O)[C@H](CC(C)C)NC(=O)[C@@H](NC(=O)[C@H](CCC(=O)O)NC(=O)[C@H](CCCNC(=N)N)NC(=O)[C@H](CC(C)C)NC(=O)[C@H](CC(C)C)NC(=O)[C@H](Cc1c[nH]cn1)NC(=O)[C@H](Cc1ccccc1)NC(=O)[C@@H](NC(=O)[C@H](CC(C)C)NC(=O)[C@H](CC(=O)O)NC(=O)[C@H](CC(C)C)NC(=O)[C@H](CO)NC(=O)[C@@H](NC(=O)[C@@H]1CCCN1C(=O)[C@@H]1CCCN1C(=O)[C@H](CCC(=O)O)NC(=O)[C@H](CCC(N)=O)NC(=O)[C@@H](N)CO)[C@@H](C)CC)[C@@H](C)O)C(C)C)[C@@H](C)O)C(N)=O [[des Ala^41]-CRF] (H-SQEPPISLDLTFHLLREVLEMTKADQLAQQAHSNRKLLDI-NH2)	stimulates the secretion of ACTH and β-END-LI	very significant lowering of blood pressure
